The values that follow come from patent US20030134859A1 (SANKYO COMPANY, LIMITED, priority 2000, published 2003).

In one assay the test system is KK mice. In words: Plasma glucose lowering effects in hyperglycemic KK mice. It is filed as in vivo, mouse. As to conditions: male KK mice, 0.3 weight % in food for 1 week. On the procedure: Unless otherwise described, mice were bred individually, and food and water were taken ad libitum in the following experiments. For this, F2 food powder (Funahashi Farm) was used. Plasma glucose level in the blood collected from the tail vein of a mouse with a heparin-coated glass tube was determined with the Glucoloader (A&T Corp.).
Male KK mice (purchased from Clea Japan, Inc) were purchased at 6 weeks old and were bred until 19 weeks old through an acclimatisation period and test period. The plasma glucose level of each mouse was determined and the occurrence of hyperglycemia in the mice was confrrmed. The animals with a plasma glucose level of 350 mg/dl and higher were screened and the animals for use in the experiment were selected. The selected mice were divided into a control group and a test compound treated group (n=6/group) matched for body weights and plasma glucose levels.
In the control group, conventional food powder was given-to each mouse, while in the test compound-treated group, the food comprising the food powder (F2) mixed with the test compound (final concentration: 0.3 weight %) was given to each mouse. The mice in both groups were bred for 1 week.
One week after the treatment, the blood glucose level was determined.

The next assay concerns lenses. In words: Cataract assessment: opacity of cultured lenses exposed to hydrogen peroxide. Details: species or system rat. As to conditions: 100 nM test compound with 5 mM hydrogen peroxide; 24 hr; clear: 0, slightly opaque: 1, moderately opaque: 2. Here is the method:
The lenses were isolated from Sprague-Dawley rats (male, purchased from SLC Japan), and the lenses were pre-cultured in a medium (Medium-199: GIBCO BRL) for 3 hr and the lenses maintaining transparency were selected and used in the experiment. The crystalline lenses were cultured for 24 hr in the following 3 groups; 1) in Medium-199 (3 mL), 2) in Medium-199 (3 mL) containing hydrogen peroxide (final concentration: 5 mM) and 3) in Medium-199 (3 mL) containing the test compound (final concentration: 100 nM), DMSO (final concentration: 0.1% v/v) and hydrogen peroxide (final concentration: 5 mM). After finalising culturing, the opacity of the lens was scored based on the following criteria: clear: 0, slightly opaque: 1, moderately opaque: 2. Thus the improving effect of the test compound on cataracts was assessed.

A further assay concerns ABCA1 mRNA. As to the kind of experiment: Quantitative analysis of ABCA1 mRNA (TaqMan PCR) in RAW264.7 cells. As to conditions: 100 nM test compound, 24 hr, normalised to β-actin, DMSO = 100. In kind it is cell-based, mouse. On the procedure: The mouse monocyte/macrophage cell line, RAW264.7 (ATCC TIB71) was purchased from Dainippon Pharmaceutical Co., Ltd. As the medium, the Dulbecco's modified Eagle's medium (DMEM medium; GIBCO, Cat. No. 11995-040) containing bovine fetal serum (the final concentration: 10% (v/v), MOREGATE, lot No. 474030), penicillin G (the final concentration: 50 units/mL, GIBCO) and streptomycin (the final concentration: 20 μg/mL, GIBCO) was used.
The culture of RAW264.7 cells was carried out in a CO2 incubator (37° C., 95% R.H., 5% of CO2).
A 2 ml volume of RAW264.7 cells suspension (1×10^6 cells/mL) was plated in each well of a 6-well plate (2×10^6 cells/well) and the cells were incubated for 2 hr in a CO2 incubator. The test compounds dissolved in DMSO were diluted with DMEM medium by 20 times, and were added to the wells at a volume of 4 μL/well (final concentration of the test compound: 100 nM). As the control, the DMSO solution was diluted with the DMEM medium by 20 times, and was added to the wells at the volume of 4 μL/well. After the cells were cultured in a CO2 incubator for 24 hr, the medium was removed and the total RNA was purified by using an RNeasy Mini Kit (Qiagen), according to the protocol attached. The concentration of the RNA in the samples obtained was calculated from absorbance at 260 nm (A260=1=40 μg/ml). Six (6) μg of total RNA were diluted with RNAase-free water so as to be 22.6 μL, which was heated at 65° C. for 10 min, and then was cooled on ice. The RNA in the solution was used as the template, and the cDNA was synthesized by using a First-strand cDNA Synthesis Kit (Amersham Pharmacia Biotech). In this reaction, a solution was prepared having the following composition and was reacted at 37° C. for 1 hr.
After the reaction, 3 μL of soution were collected from each of the reaction mixtures of the test compound-treated cell samples and that of the control cell samples. The mixed solution was used as the standard solution. The standard solution and each reaction solution were purified with a Chroma Spin-100+DEPC-H2O Column according to the protocol attached, and they were used as the template for TaqMan PCR (Template). In order to draw the calibration curve, the standard solution was diluted by every 5 times for 5 steps and each solution was used for TaqMan PCR. TaqMan PCR was carried out in ABCA1 and β-actin. As Primers for use in the TaqMan PCR, 4 oligonucleotides (abca1 forward (S3), abca1 reverse (AS3), β-actin forward (S4) and β-actin reverse (AS4)) were designed which are shown in sequences No. 5 to 8 in the sequence table described later. The synthesis and purification of these 4 oligomers was ordered from Amersham Pharmacia Biotech Co.
As FAM-TAMRA labelled TaqMan Probe, 2 kinds of oligonucleotides (abca1 (p1) and β-actin (p2)) were designed and were ordered from Applied Biosystems Co. to synthesize and purify.
The following reaction mixture of ABCA1 or β-actin was divided into 2 wells of a MicroAmp Optical 96-well Reaction Plate (Applied Biosystem Co.). TaqMan Universal PCR Master Mix was purchased from Applied Biosystem Co.
The plate was covered with a MicroAmp Optical Cap (Applied Biosystems Co.), and TaqMan PCR was carried out by using an ABI PRISM 7,700 Sequence Detection System (Applied Biosystem Co.) under the following conditions:
An analysis was made according to the procedures described in the manual of Sequence Detection Software (Applied Biosystem Co.) and the increased rate of ABCA1 mRNA due to the test compound was calculated based on the following equation.
A: Amount of the ABCA1 mRNA in the presence of the test compound
B: Amount of the β-actin mRNA in the presence of the test compound
C: Amount of the ABCA1 mRNA in the presence of DMSO
D: Amount of the β-actin mRNA in the presence of DMSO
Increase Rate (%) of ABCA1 mRNA=(A/B)/(C/D)×100

For `O=C(Nc1ccc(OC(F)(F)F)cc1)c1cc([N+](=O)[O-])ccc1Cl` [Example 18, N-(4-Trifluoromethyloxyphenyl)-(2-chloro-5-nitrophenyl)carboxamide], the “plasma glucose on Day 7” value in the assay on KK mice (n=6/group) is reported as 315 ± 14. The “% of inhibition (vs. control)” value in the assay on KK mice (plasma glucose on Day 7) turned out to be 55%.

For `Cc1c(C)c2c(c(C)c1O)C(=O)CC(C)(COc1ccc(NC(=O)c3cc([N+](=O)[O-])ccc3Cl)cc1)O2` (centres unmarked) [Example 92, N-[4-(6-Hydroxy-2,5,7,8-tetramethyl-4-oxochroman-2-ylmethoxy)phenyl]-(2-chloro-5-nitrophenyl)carboxamide], the “opacity of the lens (average score)” value with lenses worked out at 1.0.

`CCN(CC)c1ccc(-c2ccc(NC(=O)c3cc([N+](=O)[O-])ccc3Cl)cc2)cc1` [Example 217, N-[4-[4-(N,N-Diethylamino)phenyl]phenyl]-(2-chloro-5-nitrophenyl)carboxamide]: in the assay on ABCA1 mRNA, the “Rate of Increase (%) of ABCA1 mRNA” value is given as 187.0%.

For `CCN(C)c1ccc(-c2ccc(NC(=O)c3cc([N+](=O)[O-])ccc3Cl)cc2)cc1` [Example 218, N-[4-[4-(N-Ethyl-N-methylamino)phenyl]phenyl]-(2-chloro-5-nitrophenyl)carboxamide], the “Rate of Increase (%) of ABCA1 mRNA” value in the assay with ABCA1 mRNA amounted to 190.0%.
